# From US20230151025A1, “SUBSTITUTED THIAZOLOPYRIDINES, SALTS THEREOF AND THEIR USE AS HERBICIDALLY ACTIVE SUBSTANCES” (Bayer Aktiengesellschaft, priority 2020, published 2023)
# System: Lolium rigidum (LOLRI)
# Test: Herbicidal pre-emergence action (A), 1280 g/ha
# Type: in vivo
# Details: visual grading after ca. 3 weeks vs untreated controls, 100% = plants have died off, 0% = as control plants
# Outline: (§1)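 Seeds were sown in sandy loam pots (one mono- and one dicot weed per pot) and covered with soil; WP or EC formulations were applied to the soil surface as aqueous suspension/emulsion with 0.5% additive at 600 l water/ha. Damage was scored visually after ca. 3 weeks versus untreated controls (0% = control, 100% = dead).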
row,SMILES,"LOLRI, herbicidal effect in percent (%)"
1,CCCc1cc2scnc2nc1-c1ccccc1F [Example I-185],100
2,Clc1cc2scnc2nc1-c1ccsc1 [Example I-191],100

# System: Alopecurus myosuroides (ALOMY)
# Test: Herbicidal pre-emergence action (A), 1280 g/ha
# Type: in vivo
# Details: visual grading after ca. 3 weeks vs untreated controls, 100% = plants have died off, 0% = as control plants
# Outline: as §1
row,SMILES,"ALOMY, herbicidal effect in percent (%)"
1,Clc1cc2scnc2nc1-c1ccsc1 [Example I-191],100

# System: Amaranthus retroflexus (AMARE)
# Test: Herbicidal pre-emergence action (A), 1280 g/ha
# Type: in vivo
# Details: visual grading after ca. 3 weeks vs untreated controls
# Outline: as §1
row,SMILES,herbicidal effect AMARE [%]
1,Clc1cc2scnc2nc1-c1ccsc1 [Example I-191],90

# System: Matricaria inodora (MATIN)
# Test: Herbicidal pre-emergence action (A), 1280 g/ha
# Type: in vivo
# Details: visual grading after ca. 3 weeks vs untreated controls
# Outline: as §1
row,SMILES,herbicidal effect MATIN [%]
1,CCCc1cc2scnc2nc1-c1ccccc1F [Example I-185],90
2,Clc1cc2scnc2nc1-c1ccsc1 [Example I-191],90

# System: Kochia scoparia (KCHSC; Bassia scoparia)
# Test: Herbicidal pre-emergence action (A), 1280 g/ha
# Type: in vivo
# Details: visual grading after ca. 3 weeks vs untreated controls
# Outline: as §1
row,SMILES,herbicidal effect KCHSC [%]
1,CCCc1cc2scnc2nc1-c1ccccc1F [Example I-185],90
2,Clc1cc2scnc2nc1-c1ccsc1 [Example I-191],90

# System: Stellaria media (STEME)
# Test: Herbicidal pre-emergence action (A), 1280 g/ha
# Type: in vivo
# Details: visual grading after ca. 3 weeks vs untreated controls
# Outline: as §1
row,SMILES,herbicidal effect STEME [%]
1,CCCc1cc2scnc2nc1-c1ccccc1F [Example I-185],90
2,Clc1cc2scnc2nc1-c1ccsc1 [Example I-191],100

# System: Poa annua (POAAN)
# Test: Herbicidal pre-emergence action (A), 1280 g/ha
# Type: in vivo
# Details: visual grading after ca. 3 weeks vs untreated controls, 100% = plants have died off, 0% = as control plants
# Outline: as §1
row,SMILES,"POAAN, herbicidal effect in percent (%)"
1,COc1ccccc1-c1nc2nc(SC)sc2cc1C [Example I-007],90
2,CCCc1cc2scnc2nc1-c1ccccc1F [Example I-185],100
3,Clc1cc2scnc2nc1-c1ccsc1 [Example I-191],100

# System: Veronica persica (VERPE)
# Test: Herbicidal pre-emergence action (A), 1280 g/ha
# Type: in vivo
# Details: visual grading after ca. 3 weeks vs untreated controls
# Outline: as §1
row,SMILES,herbicidal effect VERPE [%]
1,CCCc1cc2scnc2nc1-c1ccccc1F [Example I-185],90
2,Clc1cc2scnc2nc1-c1ccsc1 [Example I-191],100

# System: Echinochloa crus-galli (ECHCG)
# Test: Herbicidal pre-emergence action (A), 1280 g/ha
# Type: in vivo
# Details: visual grading after ca. 3 weeks vs untreated controls, 100% = plants have died off, 0% = as control plants
# Outline: as §1
row,SMILES,"ECHCG, herbicidal effect in percent (%)"
1,CCCc1cc2scnc2nc1-c1ccccc1F [Example I-185],100
2,Clc1cc2scnc2nc1-c1ccsc1 [Example I-191],100

# System: Setaria viridis (SETVI)
# Test: Herbicidal pre-emergence action (A), 1280 g/ha
# Type: in vivo
# Details: visual grading after ca. 3 weeks vs untreated controls
# Outline: as §1
row,SMILES,herbicidal effect SETVI [%]
1,COc1ccccc1-c1nc2nc(SC)sc2cc1C [Example I-007],100
2,Clc1cc2scnc2nc1-c1ccsc1 [Example I-191],100

# System: Lolium rigidum (LOLRI)
# Test: Herbicidal pre-emergence action (C), 320 g/ha
# Type: in vivo
# Details: ca. 3 weeks
# Source text: (§2) ABUTH: Abutilon theophrasti AGSTE: Agrostis tenuis ALOMY: Alopecurus myosuroides AMARE Amaranthus retroflexus DIGSA: Digitaria sanguinalis ECHCG: Echinochloa crus-galli KCHSC: Kochia scoparia LOLRI: Lolium rigidum MATIN: Matricaria inodora POAAN: Poa annua POLCO: Polygonum convolvulus SETVI: Setaria viridis STEME: Stellaria media VERPE: Veronica persica VIOTR: Viola tricolor
# (§3) Seeds of mono- and dicotyledonous weed plants and crop plants were sown, in plastic or organic planting pots, in sandy loam and covered with soil. The compounds according to the invention, formulated in the form of wettable powders (WP) or as emulsifiable concentrates (EC), were applied to the surface of the covering soil as aqueous suspension or emulsion, with the addition of 0.5% of an additive, at an application rate of 600 l of water/ha (converted).
# (§4) Following treatment, the pots were placed in a greenhouse and kept under optimum growth conditions for the test plants. The visual grading of the damage to the test plants was carried out after ca. 3 weeks in comparison to untreated controls (herbicidal effect in percent (%): 100% effect=plants have died off, 0% effect=as control plants).
# (§5) Tables C1 to C13 below show the effects of selected compounds of the general formula (I) according to table 1 on various harmful plants and an application rate corresponding to 320 g/ha obtained by the experimental procedure mentioned above.
row,SMILES,herbicidal effect LOLRI [%]
1,CCCc1cc2scnc2nc1-c1ccccc1F [Example I-185],100

# System: Alopecurus myosuroides (ALOMY)
# Test: Herbicidal pre-emergence action (C), 320 g/ha
# Type: in vivo
# Details: ca. 3 weeks
# Source text: as §2, §3, §4, §5
row,SMILES,herbicidal effect ALOMY [%]
1,CCCc1cc2scnc2nc1-c1ccccc1F [Example I-185],90
2,Clc1cc2scnc2nc1-c1ccsc1 [Example I-191],90

# System: Echinochloa crus-galli (ECHCG)
# Test: Herbicidal pre-emergence action (C), 320 g/ha
# Type: in vivo
# Details: ca. 3 weeks
# Source text: as §2, §3, §4, §5
row,SMILES,herbicidal effect ECHCG [%]
1,CCCc1cc2scnc2nc1-c1ccccc1F [Example I-185],100
2,Clc1cc2scnc2nc1-c1ccsc1 [Example I-191],100

# System: Setaria viridis (SETVI)
# Test: Herbicidal pre-emergence action (C), 320 g/ha
# Type: in vivo
# Details: ca. 3 weeks
# Source text: as §2, §3, §4, §5
row,SMILES,herbicidal effect SETVI [%]
1,CCCc1cc2scnc2nc1-c1ccccc1F [Example I-185],100

# System: Alopecurus myosuroides (ALOMY)
# Test: Herbicidal post-emergence action (D), 320 g/ha
# Type: in vivo
# Details: ca. 3 weeks
# Source text: as §2
# (§6) Seeds of mono- and dicotyledonous weed plants and crop plants were sown, in plastic or organic planting pots, in sandy loam, covered with soil and grown in a greenhouse under controlled growth conditions. 2 to 3 weeks after sowing, the test plants were sprayed in the single-leaf stage. The compounds according to the invention, formulated in form of wettable powders (WP) or as emulsifiable concentrates (EC), were sprayed onto the green plant parts as aqueous suspension or emulsion, with the addition of 0.5% of an additive, at an application rate of 600 l of water/ha (converted). The test plants were placed in the greenhouse for ca. 3 weeks under optimum growth conditions, and then the effect of the preparations was assessed visually in comparison with untreated controls (herbicidal effect in percent (%): 100% effect=plants have died off, 0% effect=as control plants).
# (§7) Tables D1 to D13 below show the effects of selected compounds of the general formula (I) according to table 1 on various harmful plants and an application rate corresponding to 320 g/ha obtained by the experimental procedure mentioned above.
row,SMILES,herbicidal effect ALOMY [%]
1,Clc1cc2scnc2nc1-c1ccsc1 [Example I-191],80

# System: Polygonum convolvulus (POLCO)
# Test: Herbicidal post-emergence action (D), 320 g/ha
# Type: in vivo
# Details: ca. 3 weeks
# Source text: as §2, §6, §7
row,SMILES,herbicidal effect POLCO [%]
1,CCCc1cc2scnc2nc1-c1ccccc1F [Example I-185],80

# System: Veronica persica (VERPE)
# Test: Herbicidal post-emergence action (D), 320 g/ha
# Type: in vivo
# Details: ca. 3 weeks
# Source text: as §2, §6, §7
row,SMILES,herbicidal effect VERPE [%]
1,CCCc1cc2scnc2nc1-c1ccccc1F [Example I-185],90

# System: Echinochloa crus-galli (ECHCG)
# Test: Herbicidal post-emergence action (D), 320 g/ha
# Type: in vivo
# Details: ca. 3 weeks
# Source text: as §2, §6, §7
row,SMILES,herbicidal effect ECHCG [%]
1,CCCc1cc2scnc2nc1-c1ccccc1F [Example I-185],80
2,Clc1cc2scnc2nc1-c1ccsc1 [Example I-191],90

# System: Setaria viridis (SETVI)
# Test: Herbicidal post-emergence action (D), 320 g/ha
# Type: in vivo
# Details: ca. 3 weeks
# Source text: as §2, §6, §7
row,SMILES,herbicidal effect SETVI [%]
1,CCCc1cc2scnc2nc1-c1ccccc1F [Example I-185],90

# System: Alopecurus myosuroides (ALOMY)
# Test: Herbicidal post-emergence action (B), 1280 g/ha
# Type: in vivo
# Details: rated visually after about 3 weeks vs untreated controls
# Outline: (§8)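 Post-emergence spray, one-leaf stage; WP/EC formulation, aqueous, 0.5% additive, 600 L/ha water. Sandy loam, greenhouse, doubly sown pots. Visual % rating vs untreated control at ~3 weeks (100% = dead).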
row,SMILES,herbicidal activity ALOMY [%]
1,Clc1cc2scnc2nc1-c1ccsc1 [Example I-191],100

# System: Amaranthus retroflexus (AMARE)
# Test: Herbicidal post-emergence action (B), 1280 g/ha
# Type: in vivo
# Details: rated visually after about 3 weeks vs untreated controls
# Outline: as §8
row,SMILES,herbicidal activity AMARE [%]
1,COc1ccccc1-c1nc2nc(SC)sc2cc1C [Example I-007],100
2,CCCc1cc2scnc2nc1-c1ccccc1F [Example I-185],100

# System: Digitaria sanguinalis (DIGSA)
# Test: Herbicidal post-emergence action (B), 1280 g/ha
# Type: in vivo
# Details: rated visually after about 3 weeks vs untreated controls
# Outline: as §8
row,SMILES,herbicidal activity DIGSA [%]
1,COc1ccccc1-c1nc2nc(SC)sc2cc1C [Example I-007],100

# System: Matricaria inodora (MATIN)
# Test: Herbicidal post-emergence action (B), 1280 g/ha
# Type: in vivo
# Details: rated visually after about 3 weeks vs untreated controls
# Outline: as §8
row,SMILES,herbicidal activity MATIN [%]
1,COc1ccccc1-c1nc2nc(SC)sc2cc1C [Example I-007],100
2,Clc1cc2scnc2nc1-c1ccsc1 [Example I-191],90

# System: Kochia scoparia (KCHSC; Bassia scoparia)
# Test: Herbicidal post-emergence action (B), 1280 g/ha
# Type: in vivo
# Details: not given
# Outline: as §8
row,SMILES,herbicidal effect KCHSC [%]
1,COc1ccccc1-c1nc2nc(SC)sc2cc1C [Example I-007],90
2,CCCc1cc2scnc2nc1-c1ccccc1F [Example I-185],90
3,Clc1cc2scnc2nc1-c1ccsc1 [Example I-191],90

# System: Stellaria media (STEME)
# Test: Herbicidal post-emergence action (B), 1280 g/ha
# Type: in vivo
# Details: not given
# Outline: as §8
row,SMILES,herbicidal effect STEME [%]
1,COc1ccccc1-c1nc2nc(SC)sc2cc1C [Example I-007],100
2,Clc1cc2scnc2nc1-c1ccsc1 [Example I-191],90

# System: Poa annua (POAAN)
# Test: Herbicidal post-emergence action (B), 1280 g/ha
# Type: in vivo
# Details: rated visually after about 3 weeks vs untreated controls
# Outline: as §8
row,SMILES,herbicidal activity POAAN [%]
1,Clc1cc2scnc2nc1-c1ccsc1 [Example I-191],100

# System: Veronica persica (VERPE)
# Test: Herbicidal post-emergence action (B), 1280 g/ha
# Type: in vivo
# Details: not given
# Outline: as §8
row,SMILES,herbicidal effect VERPE [%]
1,COc1ccccc1-c1nc2nc(SC)sc2cc1C [Example I-007],90
2,CCCc1cc2scnc2nc1-c1ccccc1F [Example I-185],90
3,Clc1cc2scnc2nc1-c1ccsc1 [Example I-191],100

# System: Abutilon theophrasti (ABUTH)
# Test: Herbicidal post-emergence action (B), 1280 g/ha
# Type: in vivo
# Details: rated visually after about 3 weeks vs untreated controls
# Outline: as §8
row,SMILES,herbicidal activity ABUTH [%]
1,COc1ccccc1-c1nc2nc(SC)sc2cc1C [Example I-007],90
2,Clc1cc2scnc2nc1-c1ccsc1 [Example I-191],90

# System: Echinochloa crus-galli (ECHCG)
# Test: Herbicidal post-emergence action (B), 1280 g/ha
# Type: in vivo
# Details: rated visually after about 3 weeks vs untreated controls
# Outline: as §8
row,SMILES,herbicidal activity ECHCG [%]
1,CCCc1cc2scnc2nc1-c1ccccc1F [Example I-185],90
2,Clc1cc2scnc2nc1-c1ccsc1 [Example I-191],100

# System: Setaria viridis (SETVI)
# Test: Herbicidal post-emergence action (B), 1280 g/ha
# Type: in vivo
# Details: rated visually after about 3 weeks vs untreated controls
# Outline: as §8
row,SMILES,herbicidal activity SETVI [%]
1,CCCc1cc2scnc2nc1-c1ccccc1F [Example I-185],90
